# pIC50: −log10 of the molar value.
# Tests used:
# Neuraminidase [1] = target: T1, Neuraminidase (Influenza A virus, UniProt B4URF0); test: Inhibition of Influenza A H1N1 virus neuraminidase activity after 2 hrs by spectrofluorometry
# Neuraminidase [2] = target: T1, Neuraminidase; test: Inhibition of Influenza A H9N2 virus neuraminidase activity after 2 hrs by spectrofluorometry
# Neuraminidase [3] = target: T1, Neuraminidase; test: Noncompetitive inhibition of Influenza A H1N1 virus neuraminidase activity by Lineweaver-Burk plot analysis
# Sialidase = target: T2, Sialidase (Clostridium perfringens, UniProt P10481); test: Inhibition of Clostridium perfringens neuraminidase
# T2 sequence (P10481 whole entry): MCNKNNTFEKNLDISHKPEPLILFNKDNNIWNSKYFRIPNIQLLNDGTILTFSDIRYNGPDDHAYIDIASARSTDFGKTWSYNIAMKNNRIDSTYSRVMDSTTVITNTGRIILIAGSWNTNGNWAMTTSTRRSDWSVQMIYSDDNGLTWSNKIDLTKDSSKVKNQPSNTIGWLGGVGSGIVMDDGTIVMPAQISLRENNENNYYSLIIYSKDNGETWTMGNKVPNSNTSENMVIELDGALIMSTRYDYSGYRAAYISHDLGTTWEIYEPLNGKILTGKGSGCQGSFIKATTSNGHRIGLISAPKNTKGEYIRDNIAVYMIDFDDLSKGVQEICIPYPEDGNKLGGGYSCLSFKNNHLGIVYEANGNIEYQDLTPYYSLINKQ
# Neuraminidase [4] = target: T1, Neuraminidase; format: cell-based, H1N1 swine influenza virus, HEK-293T
Compound,pIC50 (Neuraminidase [1]),pIC50 (Neuraminidase [2]),pIC50 (Neuraminidase [3]),pIC50 (Sialidase),pIC50 (Neuraminidase [4])
CC(C)=CCc1cc(/C=C/C(=O)c2ccc(O)cc2O)cc(O)c1O [5'-PRENYLBUTEIN],4.12,3.98,4.02,5.03,
COc1cc(O)ccc1/C=C/C(=O)c1ccc(O)cc1 [ECHINATIN],4.67,4.68,4.52,,5.04
O=C(/C=C/c1ccc(O)cc1)c1ccc(O)cc1O [ISOLIQUIRITIGENIN],,,,4.36,
CC(C)=CCc1cc(/C=C/C(=O)c2ccc(O)c(CC=C(C)C)c2O)ccc1O [KANZONOL C],3.72,3.87,3.67,5.95,
C=CC(C)(C)c1cc(/C=C/C(=O)c2ccc(O)cc2)c(OC)cc1O [LICOAGROCHACONE A],4.25,4.27,4.27,4.69,4.80
CC(C)=CCc1cc(/C=C/C(=O)c2ccc(O)cc2O)ccc1O [LICOAGROCHALCONE A],3.80,3.76,3.73,5.80,
COc1c(/C=C/C(=O)c2ccc(O)c(CC=C(C)C)c2)ccc(O)c1O [LICOCHALCONE D],4.09,4.00,3.99,5.48,
C=CC(C)(C)c1cc(/C=C/C(=O)c2ccc(O)cc2O)c(OC)cc1O [LICOCHALCONE G],3.97,3.93,3.93,5.63,
